pEC50: −log10 of the molar value. Where a name gives a salt, the structure may show the parent alone.
What follows are compounds tested against T1, human PPARα (Homo sapiens, UniProt Q07869) (assay: Cellular PPARalpha assay (stably transfected HEK PPARalpha reporter cell line, luciferase)). Conditions: 24 h incubation, luciferase readout.
T1 construct: amino acids S167-Y468; expressed in transfected cells; host or cells: HEK (human embryo kidney) cells, stably transfected with pcDNA3 carrying the fusion construct
T1 sequence (Q07869 167-468): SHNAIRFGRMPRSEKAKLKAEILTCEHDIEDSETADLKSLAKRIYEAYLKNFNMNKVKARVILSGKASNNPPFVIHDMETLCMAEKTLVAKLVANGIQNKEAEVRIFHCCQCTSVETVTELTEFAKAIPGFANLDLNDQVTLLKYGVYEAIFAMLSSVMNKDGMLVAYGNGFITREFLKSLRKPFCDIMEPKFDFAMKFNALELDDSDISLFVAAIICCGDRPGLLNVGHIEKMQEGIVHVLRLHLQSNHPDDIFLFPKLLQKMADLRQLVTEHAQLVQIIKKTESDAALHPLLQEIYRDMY
Format: cell-based
Procedure: (A) Determination of EC50 Values of PPAR Agonists in the Cellular PPARalpha Assay
The potency of substances that bind to human PPARα and activate in an agonistic manner is analyzed using a stably transfected HEK cell line (HEK=human embryo kidney) which is referred to here as PPARalpha reporter cell line. It contains two genetic elements, a luciferase reporter element (pΔM-GAL4-Luc-Zeo) and a PPARalpha fusion protein (GR-GAL4-humanPPARα-LBD) that mediates expression of the luciferase reporter element depending on a PPARalpha ligand. The stably and constitutively expressed fusion protein GR-GAL4-humanPPARalpha-LBD binds in the cell nucleus of the PPARalpha reporter cell line via the GAL4 protein portion to the GAL4 DNA binding motifs 5′-upstream of the luciferase reporter element which is integrated in the genome of the cell line. There is only little expression of the luciferase reporter gene without addition of a PPARalpha ligand if fatty acid-depleted fetal calf serum (cs-FCS) is used in the assay. PPARα ligands bind and activate the PPARα fusion protein and thereby bring about expression of the luciferase reporter gene. The luciferase which is formed can be detected by means of chemiluminescence via an appropriate substrate.
The PPARalpha reporter cell line was prepared in 2 stages. Firstly, the luciferase reporter element was constructed and stably transfected into HEK cells. For this purpose, five binding sites of the yeast transcription factor GAL4 (each 5′-CGGAGTACTGTCCTCCGAG-3′ (SEQ ID NO:1)) were cloned in 5′-upstream of a 68 bp-long minimal MMTV promoter (Genbank Accession # V01175). The minimal MMTV promoter section contains a CCAAT box and a TATA element in order to enable efficient transcription by RNA polymerase II. The cloning and sequencing of the GAL4-MMTV construct took place in analogy to the description of Sambrook J. et. al. (Molecular cloning, Cold Spring Harbor Laboratory Press, 1989). Then the complete Photinus pyralis gene (Genbank Accession # M15077) was cloned in 3′-downstream of the GAL4-MMTV element. After sequencing, the luceriferase reporter element consisting of five GAL4 binding sites, MMTV promoter and luciferase gene was recloned into a plasmid which confers zeocin resistance in order to obtain the plasmid pΔM-GAL4-Luc-Zeo. This vector was transfected into HEK cells in accordance with the statements in Ausubel, F. M. et al. (Current protocols in molecular biology, Vol.1-3, John Wiley & Sons, Inc., 1995). […] In a second step, the PPARalpha fusion protein (GR-GAL4-humanPPARalpha-LBD) was introduced into the stable cell clone described. For this purpose, initially the cDNA coding for the N-terminal 76 amino acids of the glucocorticoid receptor (Genbank Accession # P04150) was linked to the cDNA section coding for amino acids 1-147 of the yeast transcription factor GAL4 (Genbank Accession # P04386). The cDNA of the ligand-binding domain of the human PPARalpha receptor (amino acids S167-Y468; Genbank Accession # S74349) was cloned in at the 3′-end of this GR-GAL4 construct. The fusion construct prepared in this way (GR-GAL4-humanPPARalpha-LBD) was recloned into the plasmid pcDNA3 (from Invitrogen) in order to enable constitutive expression therein by the cytomegalovirus promoter. This plasmid was linearized with a restriction endonuclease and stably transfected into the previously described cell clone containing the luciferase reporter element. The finished PPARalpha reporter cell line that contains a luciferase reporter element and constitutively expresses the PPARalpha fusion protein (GR-GAL4-human PPARalpha-LBD) was isolated by selection with zeocin (0.5 mg/ml) and G418 (0.5 mg/ml).
The activity of PPARalpha agonists is determined in a 3-day assay described below: […]

pEC50 | Structure (SMILES)
8.74 | Cc1ccc(-c2nc(CO[C@H]3CCC[C@@H](COC(C)(C)C(=O)O)C3)c(C)o2)cc1 [Example 8a, 2-[(1R,3S)-3-(5-Methyl-2-p-tolyloxazol-4-ylmethoxy)cyclohexylmethoxy]-2-methylpropionic Acid]
7.10 | Cc1ccc(-c2nc(COC3CCCC(CN[C@H](C(=O)O)C(C)C)C3)c(C)o2)cc1 (mixture of isomers) [Example 42, (S)-3-Methyl-2{[cis-3-(5-methyl-2-p-tolyloxazol-4-ylmethoxy)cyclohexyl-methyl]amino}butyric acid]
9.40 | CCc1oc(-c2ccc3ccccc3c2)nc1COC[C@@H]1CCC[C@H](COC(C)(C)C(=O)O)C1 (racemic) [Example 64, 2-[cis-3-(5-ethyl-2-(2-naphthyl)oxazol-4-yl-methoxymethyl)cyclohexylmethoxy]-2-methylpropionic acid]
7.92 | Cc1ccc(-c2nc(COC3CCCC(CN(Cc4ccccc4)[C@H](C(=O)O)C(C)C)C3)c(C)o2)cc1 (mixture of isomers) [Example 51, (S)-2-{benzyl-[cis-3-(5-methyl-2-p-tolyloxazol-4-ylmethoxy)-cyclohexylmethyl]amino}-3-methylbutyric acid trifluoroacetic acid salt]
7.60 | Cc1ccc(-c2nc(CO[C@@H]3CCC[C@H](COC(Cc4ccccc4)C(=O)O)C3)c(C)o2)cc1 (relative stereo) [Example 4, 2-[cis-3-(5-methyl-2-p-tolyloxazol-4-ylmethoxy)cyclohexyl-methoxy]-3-phenylpropionic acid]
7.77 | CCCCCC(C(=O)O)[S+]([O-])CC1CCCC(OCc2nc(-c3ccc(C)cc3)oc2C)C1 (stereo not drawn) [Example 33, 2-[cis-3-(5-methyl-2-p-tolyloxazol-4-ylmethoxy)cyclohexylmethylsulfinyl]heptanoic acid]
8.37 | Cc1ccc(-c2nc(CO[C@@H]3CCC[C@H](COC4(C(=O)O)CCCC4)C3)c(C)o2)cc1 (relative stereo) [Example 9, 1-[cis-3-(5-Methyl-2-p-tolyloxazol-4-ylmethoxy)cyclohexylmethoxy]cyclo-pentanecarboxylic acid]
9.40 | COc1cccc(-c2nc(CO[C@@H]3CCC[C@H](CCC(C(=O)O)C(C)C)C3)c(C)o2)c1 (relative stereo) [Example 74, 2-(2-{cis-3-[2-(3-methoxyphenyl)-5-methyloxazol-4-ylmethoxy]cyclohexyl}ethyl)-3-methylbutyric acid]
8.07 | CCCCCC(C(=O)O)S(=O)(=O)CC1CCCC(OCc2nc(-c3ccc(C)cc3)oc2C)C1 (stereo not drawn) [Example 38, 2-[cis-3-(5-methyl-2-p-tolyloxazol-4-ylmethoxy)cyclohexylmethylsulfonyl]heptanoic acid]
10.15 | Cc1ccc(-c2nc(CO[C@@H]3CCC[C@H](CSCC(=O)O)C3)c(C)o2)cc1 (racemic) [Example 22]
9.52 | CCC(SCC1CCCC(OCc2nc(-c3ccc(C)cc3)oc2C)C1)C(=O)O (stereo not drawn) [Example 24, 2-[cis-3-(5-methyl-2-p-tolyloxazol-4-ylmethoxy)cyclohexylmethylsulfanyl]butyric acid]
8.40 | Cc1oc(-c2ccc(C(F)(F)F)cc2)nc1COC1CCCC(COC(C)(C)C(=O)O)C1 [Example 16, 2-methyl-2-{(1R,3S)-cis-3-[5-methyl-2-(4-trifluoromethyl-phenyl)oxazol-4-ylmethoxy]cyclohexylmethoxy}propionic acid]

Reference: patent US7259177B2, “Cycloalkylmethoxy-substituted acetic acid derivatives, processes for their preparation and their use as pharmaceuticals” (Sanofi-Aventis Deutschland GmbH, priority 2003, dated 2007)
